{
  "source": "patent US6743895B1",
  "about": "“Bone stimulating factor” (Osteopharm Inc., priority 1995, dated 2004)",
  "system": "rats",
  "assay": "Bone mineral apposition rate in intact rats after subcutaneous injection of polypeptide, tetracycline labelling",
  "type": "in vivo, Sprague-Dawley rats",
  "details": "for Increase of bone apposition rate with respect to the control: non-N-terminus variants (Table Nineteen, FIG. 12); for Bone Apposition Rate, Mean: rats injected with non-N-terminus variants, SEQ ID NO:1 for comparison, lower metaphysis of right femur (Table Nineteen); for Bone stimulatory activity of substituted 10-amino acid polypeptides: rats about 300 grams, 100 nmoles s.c. per animal, N-terminus acetylated, C-terminus amidated, compared with family retaining full charge pattern",
  "procedure": "Experiments were carried out on three groups of six rats weighing between 295 and 320 g. A 1 mg per ml solution of the modified peptide (SEQ ID NO:3) was prepared in 0.1% acetic acid. A 1 mg per ml solution of the normal peptide (SEQ ID NO:1) was prepared in 0.1% acetic acid. Each rat of a first of the groups had subcutaneously injected into its right thigh 0.1 ml of the modified peptide solution. Similarly, each rat of the second group was injected with 0.1 ml of the normal peptide solution. Each rat of the third group, the control group, was injected with 0.1 ml of 0.1% acetic acid solution. Immediately following these injections, each rat was injected intramuscularly with 24 mg per Kg body weight of tetracycline hydrochloride dissolved in 0.5 ml of water. A second dose of tetracycline hydrochloride was administered 48 hours later. The animals were sacrificed 24 hours after the second dose by CO2 narcosis. The lower metaphysis of the right femur was dissected out and fixed in a 10% aqueous solution of formaldehyde buffered at pH 7.2 by acetate buffer. Bone sections were prepared for measurement as described above.\nSprague-Dawley rats were used as test animals to determine bone mineral apposition rate, as described above. Male rats having weights between 280 and 380 g were subject to subcutaneous injection after one week of acclimatization. Each animal was injected with 200 μl of a 0.1% acetic acid test solution, solutions having been prepared at concentrations to obtain a dosage of about 25 nmol of polypeptide per animal. Each test dose was immediately followed by intramuscular injection of 24 mg per Kg of body weight of tetracycline hydrochloride. A second injection of tetracycline was made 48 hours later.\nBone mineral apposition rates were determined by measurements of the lower metaphysis of the right femur, as described previously. Results obtained in the two sets of experiments are summarized in Tables Seven and Eight and graphically depicted in FIGS. 8 and 9.\nBone mineral apposition rates were again determined by measurement of the lower metaphysis of the right femur. Results obtained are summarized in Table Nineteen and graphically depicted in FIG. 12. […]\nIn a final set of experiments, a polypeptide having the ninth amino acid, cysteine, replaced by the amino acid tyrosine, SEQ ID NO:43, was synthesized and tested for bone stimulatory activity. Four rats (about 300 grams) were each administered with 100 nmoles of material (in 400 μl 20 mM acetic acid solution) by subcutaneous injection along with tetracycline (5 mg per animal in 400 μl water), as described above. A second dosage of tetracycline was administered 48 hours later and the animals sacrificed 24 hours after that. The lower metaphysis of the right femur was examined to determine the bone mineral apposition rate. For comparison, experiments were performed using a control in which no compound was present in the acetic acid solution.",
  "key": {"[1]": {"details": "about 25 nmol per animal s.c., second, separate set (Table Eight)"}, "[2]": {"details": "male Sprague-Dawley rats 280-380 g, about 25 nmol per animal s.c., first set (Table Seven)"}},
  "note": "No end group written: not given here.",
  "data": [
    {"substance": "GIGKRTNEHTADCK [SEQ ID NO:8]", "values": [
      {"measurement": "Bone mineral apposition rate, Mean", "setting": "[1]", "result": 2.09, "unit": "μm/d"}
    ]},
    {"substance": "GIGKRTNEHTADAKIKPNTLHKKAAETLMVLDQNQP [SEQ ID NO:3]", "values": [
      {"measurement": "Bone mineral apposition rate, Mean", "setting": "rats 295-320 g, 0.1 ml of 1 mg per ml solution s.c., lower metaphysis of right femur (Table Six)", "result": 1.35, "unit": "μm/d"}
    ]},
    {"substance": "LHKKAAETLMVLDQN [SEQ ID NO:11]", "values": [
      {"measurement": "Increase of bone apposition rate with respect to the control", "result": "none"}
    ]},
    {"substance": "LHKKAAETLMVLDQNQ [SEQ ID NO:10]", "values": [
      {"measurement": "Increase of bone apposition rate with respect to the control", "result": "none"}
    ]},
    {"substance": "RTNEHTADCKIKPNTLHKKAAETLMVLDQN [SEQ ID NO:15]", "values": [
      {"measurement": "Increase of bone apposition rate with respect to the control", "result": "none"},
      {"measurement": "Bone Apposition Rate, Mean", "result": 0.92, "unit": "μm/day"}
    ]},
    {"substance": "GIGKRTNEHTADCKIKPNTL [SEQ ID NO:6]", "values": [
      {"measurement": "Bone mineral apposition rate, Mean", "setting": "[2]", "result": 1.37, "unit": "μm per day"}
    ]},
    {"substance": "LHKKAAETLMVLDQ [SEQ ID NO:12]", "values": [
      {"measurement": "Increase of bone apposition rate with respect to the control", "result": "none"}
    ]},
    {"substance": "SEQ ID NO:34: SEQ ID NO:24 sequence with one amino acid having a charged side chain substituted by alanine; acetylated, amidated (Ac-ATNEHTADCK-NH2)", "values": [
      {"measurement": "Bone stimulatory activity of substituted 10-amino acid polypeptides", "result": "lack or to exhibit substantially less bone stimulatory activity"}
    ]},
    {"substance": "Arg Thr Asn Glu His Thr Ala Asp Cys Lys (Ac-RTNEHTADCK-NH2) [SEQ ID NO:9]", "values": [
      {"measurement": "Bone mineral apposition rate, Mean", "setting": "[1]", "result": 2.83, "unit": "μm/d"},
      {"measurement": "Mean Bone Apposition Rate", "setting": "about 125 nmoles of polypeptide per Kg of body weight (Table Twenty)", "result": 2.11, "unit": "μm/day"}
    ]},
    {"substance": "SEQ ID NO:45: third amino acid asparagine replaced by glutamine, eighth aspartic acid by glutaric acid, ninth cysteine by tyrosine (as printed) (Ac-RTQEHTAEYK; not fully specified; also: position 8 stated as glutaric acid replacing Asp, X10 not defined)", "values": [
      {"measurement": "Mean Bone Apposition Rate", "setting": "approximately 500 gm male Sprague-Dawley rats, 300 nmol/kg bodyweight (Table Twenty-Two)", "result": 1.77, "unit": "μm/day"}
    ]},
    {"substance": "LHKKAAETLMVLD [SEQ ID NO:13]", "values": [
      {"measurement": "Increase of bone apposition rate with respect to the control", "result": "none"}
    ]},
    {"substance": "SEQ ID NO:37: SEQ ID NO:24 sequence with one amino acid having a charged side chain substituted by alanine; acetylated, amidated (Ac-RTNEHTAACK-NH2)", "values": [
      {"measurement": "Bone stimulatory activity of substituted 10-amino acid polypeptides", "result": "lack or to exhibit substantially less bone stimulatory activity"}
    ]},
    {"substance": "RTNEHTADCKI [SEQ ID NO:16]", "values": [
      {"measurement": "Increase of bone apposition rate with respect to the control", "result": "none"},
      {"measurement": "Bone Apposition Rate, Mean", "result": 1.02, "unit": "μm/day"}
    ]},
    {"substance": "SEQ ID NO:38: SEQ ID NO:24 sequence with one amino acid having a charged side chain substituted by alanine; acetylated, amidated (Ac-RTNEHTADCA-NH2)", "values": [
      {"measurement": "Bone stimulatory activity of substituted 10-amino acid polypeptides", "result": "lack or to exhibit substantially less bone stimulatory activity"}
    ]},
    {"substance": "TADCKIKPNTLHKKAAETLMVLD [SEQ ID NO:14]", "values": [
      {"measurement": "Increase of bone apposition rate with respect to the control", "result": "none"},
      {"measurement": "Bone Apposition Rate, Mean", "result": 0.92, "unit": "μm/day"}
    ]},
    {"substance": "GIGKRTNEHTADCKIKPNTLHKKAA [SEQ ID NO:5]", "values": [
      {"measurement": "Bone mineral apposition rate, Mean", "setting": "[2]", "result": 1.35, "unit": "μm per day"}
    ]},
    {"substance": "SEQ ID NO:36: SEQ ID NO:24 sequence with one amino acid having a charged side chain substituted by alanine; acetylated, amidated (Ac-RTNEATADCK-NH2)", "values": [
      {"measurement": "Bone stimulatory activity of substituted 10-amino acid polypeptides", "result": "lack or to exhibit substantially less bone stimulatory activity"}
    ]},
    {"substance": "GIGKRTNEHTADCKIKPNTLHKKAAETLMV [SEQ ID NO:4]", "values": [
      {"measurement": "Bone mineral apposition rate, Mean", "setting": "[2]", "result": 1.31, "unit": "μm per day"}
    ]}
  ]
}
